Broadly, the IC50 is the concentration that gives 50% inhibition. The term AUC(0-inf) denotes total exposure, with the tail of the curve extrapolated. One may read the half-life as how long it takes for the measured level to halve. The low end stands for fast loss, the high end for slow loss. What is called Cmax is the peak of the concentration-time curve.

For data set [1] the following is noted: cited from earlier work.
Data set [2] has as its system experimental autoimmune encephalomyelitis (EAE). The data set is described as follows: Experimental autoimmune encephalomyelitis (EAE) in mice. Format: in vivo, C57BL/6J mice. Conditions: days 5-37. The procedure: Female C57BL/6J mice were immunized with MOG35-55 antigen emulsion. 2 hours after immunization, each animal was injected with 200 ng/100 μL PTX solution intraperitoneally. After 24 hours (the second day), the same dose of PTX solution was injected once again. On the fifth day, the animals in each group began to administer the drug, and each group was given the drug by gavage, with a dosage of 10 mL/kg, once a day for 33 consecutive days (days 5-37). During the experiment, general clinical observation was carried out twice a day, and the weight and EAE clinical scores were measured once a day after administration. The score was divided into five grades: (0. normal mice, no obvious disease; 1. tail weakness or hind limb weakness; 2. tail weakness and hind limb weakness; 3. hemiplegia of hind limbs; 4. complete paralysis of hind limbs; 5, died of EAE or euthanasia in near-death state).

Data set [3] concerns peripheral blood lymphocyte (PBL) count. The data set can be described thus: Peripheral lymphocyte lowering (PLL) in rats. Format: in vivo, Sprague-Dawley rats. Conditions: Rattus norvegicus, oral, 5 hours after administration, read-out: IC50 of peripheral blood lymphocyte (PBL) count decrease. The procedure: (§1) Mice: SPF female C57BL/6j mice, weighing 19-22 g. Rats: Male Sprague-Dawley rats, weighing 200-220 g. Feeding environment: the temperature was 23±2° C., the relative humidity was 40-70%, and the lighting time was at 7:00 in the morning to 7:00 in the evening; animals were freely fed with common feed and sterilized drinking water. All animal experiments were approved by the animal ethics committee; all animal experiments were carried out in accordance with the relevant SOP requirements of animal room. Animals were reared adaptively for one week before the experiment.
(§2) Animals were administered orally with a volume of 10 mL/kg. The vehicle for administration was 0.5% DMSO+0.5% MC. Animals were anesthetized with isoflurane 5 hours after administration, and 100-150 μL of peripheral blood was collected through the eye socket in EP tubes, placed on ice. The lymphocyte count of blood analysis was detected by XT-2000i automated hematology analyzer within 30 minutes. Another 20 μL of whole blood was diluted with 40 μL of DDW, and snap frozen in liquid nitrogen, the concentration of the compounds in blood was detected.

A short description of data set [4]: In vivo pharmacokinetics in rats, intravenous injection and oral administration. Further details: species or system Sprague Dawley rats. The conditions noted are these: rat; for AUC(0-inf) / clearance / half-life / Cmax: male, Sprague-Dawley, plasma. The procedure:
In this experimental embodiment, in vivo pharmacokinetic evaluation was performed in rats by intravenous injection and oral administration.
Experimental methods and conditions: male Sprague Dawley rats were given the test compounds 1 mg/kg (solvent 5% DMSO/15% Solutol/80% Saline) by intravenous injection and 1 mg/kg (solvent 0.5% MC) by oral gavage respectively. 5 min, 15 min, 30 min, 1 hr, 2 hr, 4 hr, 6 hr, 8 hr, 24 hr after administration, blood was collected from submandibular vein, each sample was collected about 0.20 mL, and heparin sodium was used for anti coagulation. After collection, the sample was placed on ice, and the blood was centrifuged to be measured within one hour. Blood drug concentration in plasma was detected by liquid chromatography tandem mass spectrometry (LC/MS/MS), and the pharmacokinetic parameters were calculated by Phoenix WinNonlin software.

Data set [5] concerns peripheral blood lymphocyte (PBL) count. The data set is described as follows: Peripheral lymphocyte lowering (PLL) in mice. Format: in vivo, C57BL/6j mice. The conditions noted are these: Mus musculus, oral, 5 hours after administration, read-out: IC50 of peripheral blood lymphocyte (PBL) count decrease. The procedure: as §1, §2
The next data set concerns DNBS-induced colitis. The data set can be described thus: Rat colitis model induced by DNBS. Type of data set: in vivo, Wistar rats. The conditions noted are these: DNBS rats. The text has this: The Wistar rat ulcerative enteritis model induced by DNBS (2, 4-dinitrobenzenesulfonic acid) is also one of the commonly used models for development of enteritis drugs. DNBS combines with intestinal tissue protein to form complete antigen, which increases vascular permeability, activates inflammatory transmitters, increases fibrinolytic activity, and makes the body produce immune response against intestinal mucosa, resulting in persistent ulcer and inflammation of intestinal mucosa in rats.
The experimental animals were Wistar rats, male, 5-6 weeks old, 140-160 g. The animals were kept in SPF room with a room temperature of 20-26° C., a humidity of 40-70%, fluorescent lamp lighting, 12 hours of lighting (08:00-20:00) and 12 hours of no lighting, with 2-5 animals in each cage (same administration group). […]
Drug treatment: 4 hours after modeling, animals were given with different concentrations of drugs or 0.5% methylcellulose by gavage, 10 mL/kg, once a day for 7 consecutive days. […] After administration, the animals were euthanized, colon tissues were collected, colon length, colon weight and ulcer area were measured, and colon injury in rats was evaluated macroscopically, so as to evaluate the therapeutic effect of the tested drugs on DNBS-induced inflammatory colitis model in rats.

[6] abbreviates: intravenous administration 1 mg/kg.

Consider `CCCCCCCCc1ccc(CCC(N)(CO)CO)cc1` [FTY720, Fingolimod], for which the “half-life in human body” value in data set [1] is 140 to 220 h.

As to `O=C(O)CCc1[nH]c2ccc(OCc3ccc(C4CCCC4)c(C(F)(F)F)c3)cc2c1Cl` [Compound 13], the “disease symptoms (EAE clinical score)” value in data set [2] (1 mg/kg by gavage once a day) was “significantly reduce”. The IC50 in data set [3] stood at 0.0041 µM. In data set [4] (setting [6]), this compound showed an AUC(0-inf) of 4.75 µg·h/mL, a clearance of 0.21 L/h/kg and a half-life of 2.8 h. For the same compound, in data set [4] (oral administration 1 mg/kg), the AUC(0-inf) amounted to 1.19 µg·h/mL, the peak level (Cmax) was 0.184 µg/mL, the half-life was 3.9 h and the F was 17.4%. Further, the IC50 in data set [5] amounted to 0.0185 µM.

Take `Cc1c(CCC(=O)O)[nH]c2ccc(OCc3ccc(C4CCCC4)c(C(F)(F)F)c3)cc12` [Compound 16]: the “disease symptoms (EAE clinical score)” value in data set [2] (1 mg/kg by gavage once a day) and in data set [2] (5 mg/kg by gavage once a day) was “significantly reduce” each time. Further, the figures for the IC50 in data set [3] and in data set [5] were 0.0053 µM and 0.0247 µM, respectively. In addition, the AUC(0-inf) worked out at 4.15 µg·h/mL in data set [4] (setting [6]) and 0.649 µg·h/mL in data set [4] (oral administration 1 mg/kg). In data set [4] (setting [6]), this compound gave a clearance of 0.25 L/h/kg. Further, the results for the half-life in data set [4] (setting [6]) and in data set [4] (oral administration 1 mg/kg) were 1.4 h and 2.9 h, respectively. For the same compound, the highest level in data set [4] (oral administration 1 mg/kg) (Cmax) was 0.162 µg/mL. This compound yielded a F in data set [4] (oral administration 1 mg/kg) of 13.3%. For the same compound, the “area of colonic ulcer” value in the data set on DNBS-induced colitis (0.2 mg/kg by gavage once a day for 7 days) and in the data set on DNBS-induced colitis (1 mg/kg by gavage once a day for 7 days) was “significantly reduce” each time.

These data come from patent publication US12195457B2, “Aromatic ring derivative as immunoregulation and preparation method and application of aromatic ring derivative” (SHANGHAI JEMINCARE PHARMACEUTICALS CO., LTD, priority 2018, dated 2025).
